Assay results: US11259522B2, “Control of resistant pests” (priority 2017, dated 2022)
In brackets after ≈: the same amount, converted by molar mass. Where two headings read alike, the source gives them in different places.

What was measured:
[1] = test system: Tribolium castaneum susceptible strain QTC4; experiment: Grain protectant bioassay on treated wheat, T. castaneum susceptible; format: in vivo; settings: for Progeny reduction (%): vs untreated control
[2] = test system: Cryptolestes ferrugineus susceptible strain QCF31; experiment: Grain protectant bioassay on treated wheat, C. ferrugineus susceptible; format: in vivo; settings: for Progeny reduction (%): vs untreated control
[3] = test system: Oryzaephilus surinamensis susceptible strain VOS48; experiment: Grain protectant bioassay on treated wheat, O. surinamensis susceptible; format: in vivo; settings: for Progeny reduction (%): vs untreated control
[4] = test system: Oryzaephilus surinamensis strain QOS302 (resistant to fenitrothion & chlorpyrifos-methyl); experiment: Grain protectant bioassay on treated wheat, O. surinamensis resistant; format: in vivo; settings: for Progeny reduction (%): vs untreated control
[5] = test system: M. persicae (green peach aphid) population resistant to carbamates and synthetic pyrethroids; experiment: Leaf dip bioassay, green peach aphid, resistant population; format: in vivo, Myzus persicae; settings: 96 hours exposure; for LC50: Myzus persicae, foliar
Procedure: Each colony was maintained separately on bok choi plants ([…]) within an exclusion cage in a constant temperature room at 24° C. with a photoperiod of 16:8 LD.
Laboratory bioassays were used to determine the efficacy of flavesone against M. persicae following the leaf dip method described in Moores et al. (1994, Pesticide Biochemistry and Physiology, 49, 114-120). A pilot study was first conducted which confirmed that the leaf dip method was appropriate to elicit a clear dose response for Flavocide 500EW against M. persicae, and to determine the appropriate rate range and timing of mortality assessments (scored at 24, 48, 72 & 96 hours) (data not shown).
Bioassays were then conducted to assess the efficacy of flavesone against a susceptible and resistant population of M. persicae, and to calculate LC values. The efficacy of a conventional insecticide, pirimicarb, was tested for comparison. Nine concentrations of flavesone ranging from 1×10^−3 to 10 times the proposed field rate (Table 15), and six concentrations of pirimicarb were serially diluted and tested, along with a water control, against the susceptible and resistant aphid populations. Leaf discs (25 mm diameter) cut from bok choi leaves were submerged for 1 second in the insecticide solutions, or in the water control, and placed adaxial side up on 10 g/L agar in 35 mm petri dishes. Six replicate leaf discs were prepared per treatment. Once leaves were air-dry, eight M. persicae nymphs were transferred to each insecticide-dipped leaf disc using a fine-haired paintbrush.
After aphid introduction, each petri dish was inverted onto a lid containing a 25 mm diameter filter paper to control humidity. All petri dishes were then placed into an incubator held at 18° C.±2° C. with a photoperiod of 16:8 LD cycle. At 48 & 96 hours, aphids were scored as alive (vibrant and moving freely), dead (not moving over a 5 second period), or incapacitated (inhibited movement).
Dose-response curves were generated by plotting percentage mortality against log concentration. Mortality data was analysed using a logistic regression model with random effects. Logistic regression is suited for the analysis of binary response data (i.e. dead/alive) with the random effect component of the model controlling for the non-independence of mortality scores within replicates. […] Population differences were tested by comparing the change in model deviance with and without the population factor (different regression intercepts for each population). Differences in regression slopes between populations were tested by comparing the change in model deviance with and without the population×dose interaction term.

[6] = test system: Cryptolestes ferrugineus strain QCF73 (resistant to phosphine); experiment: Grain protectant bioassay on treated wheat, C. ferrugineus resistant; format: in vivo; settings: for Progeny reduction (%): vs untreated control
[7] = Cryptolestes ferrugineus, 336 h, 25 mg/kg, 2 weeks, mean ± SE, read-out: Adult mortality (%)
[8] = Cryptolestes ferrugineus, 336 h, 60 mg/kg, 2 weeks, mean ± SE, read-out: Adult mortality (%)
[9] = Oryzaephilus surinamensis, 336 h, 25 mg/kg, 2 weeks, mean ± SE, read-out: Adult mortality (%)
[10] = Oryzaephilus surinamensis, 336 h, 60 mg/kg, 2 weeks, mean ± SE, read-out: Adult mortality (%)

## CC(C)C(=O)C1C(=O)C(C)(C)C(=O)C(C)(C)C1=O [Flavesone, 1-isobutyroyl-3,3,5,5-tetramethylcyclohexane-2,4,6-trione]
[1]; 25 mg/kg, mean ± SE
  Live adult progeny: 120.0 ± 16.1
[1]; 60 mg/kg, mean ± SE
  Live adult progeny: 65.0 ± 3.2
[1]; 60 mg/kg
  Progeny reduction (%): 45.2%
[1]; 60 mg/kg, listed as flavesone
  Progeny reduction (%): 45%
[1]; Tribolium castaneum, 336 h, 25 mg/kg, 2 weeks, mean ± SE, read-out: Adult mortality (%)
  mortality at 25 mg/kg: 0%
[1]; Tribolium castaneum, 336 h, 60 mg/kg, 2 weeks, mean ± SE, read-out: Adult mortality (%)
  mortality at 60 mg/kg: 0%
[2]; 25 mg/kg, mean ± SE
  Live adult progeny: 72.0 ± 20.3
[2]; 25 mg/kg
  Progeny reduction (%): 76.5%
[2]; 25 mg/kg, listed as flavesone
  Progeny reduction (%): ~75%
[2]; 60 mg/kg, mean ± SE
  Live adult progeny: 0.0 ± 0.0
[2]; 60 mg/kg
  Progeny reduction (%): 100%
[2]; [7]
  mortality at 25 mg/kg: 27.5 ± 17.5%
[2]; [8]
  mortality at 60 mg/kg: 90%
[3]; 25 mg/kg, 2 weeks, mean ± SE
  Adult mortality (%): 22.7 ± 2.4%
[3]; 25 mg/kg, mean ± SE
  Live adult progeny: 1.3 ± 0.7
[3]; 25 mg/kg
  Progeny reduction (%): 99.6%
[3]; 60 mg/kg, 2 weeks, mean ± SE
  Adult mortality (%): 91.3 ± 5.9%
[3]; 60 mg/kg, mean ± SE
  Live adult progeny: 0.0 ± 0.0
[3]; 60 mg/kg
  Progeny reduction (%): 100%
[3]; [9]
  mortality at 25 mg/kg: 22%
[3]; [10]
  mortality at 60 mg/kg: 91%
[4]; 25 mg/kg, mean ± SE
  Live adult progeny: 160.3 ± 15.7
[4]; 25 mg/kg
  Progeny reduction (%): 61.2%
[4]; 60 mg/kg, 2 weeks, mean ± SE
  Adult mortality (%): 14.7 ± 8.7%
[4]; 60 mg/kg, mean ± SE
  Live adult progeny: 0.0 ± 0.0
[4]; 60 mg/kg
  Progeny reduction (%): 100%
[4]; [9]
  mortality at 25 mg/kg: 0.7%
[4]; [10]
  mortality at 60 mg/kg: 14%
[5]; Resistant population, read-out: LC50 (mg a.i./L)
  LC50: 3150 µg/mL (≈ 12.5 mM)
[5]; susceptible and resistant populations, read-out: LC50
  LC50: 2730 to 3150 µg/mL (≈ 10.8 to 12.5 mM)
[5]; Resistant population
  LC90 (mg a.i./L): 7,929 mg a.i./L
  LC99 (mg a.i./L): 21,708 mg a.i./L
[6]; 25 mg/kg, mean ± SE
  Live adult progeny: 83.7 ± 6.5
[6]; 25 mg/kg
  Progeny reduction (%): 75.7%
[6]; 25 mg/kg, listed as flavesone
  Progeny reduction (%): ~75%
[6]; 60 mg/kg, mean ± SE
  Live adult progeny: 0.0 ± 0.0
[6]; 60 mg/kg
  Progeny reduction (%): 100%
[6]; [7]
  mortality at 25 mg/kg: 3.3 ± 1.3%
[6]; [8]
  mortality at 60 mg/kg: 62%
